HELM strings list units from the 5' end as sugar, base in round brackets, then linkage (d deoxyribose, r ribose, m 2'-O-methyl, p phosphodiester). Strings are as the collection lists them, not checked against the first reports. ss, as = sense and antisense strand
Note: test system not given here.

For this data set the following is noted: siRNA.
On to “RNA1{m(U)p.r(A)p.r(C)p.r(C)p.r(G)p.r(A)p.r(G)p.r(A)p.r(A)p.m(U)p.r(G)p.r(A)p.r(G)p.r(C)p.r(C)p.m(U)p.r(G)p.r(A)p.r(U)p.r(T)p.r(T)}|RNA2{r(A)p.r(U)p.m(C)p.r(A)p.r(G)p.r(G)p.r(C)p.r(U)p.m(C)p.r(A)p.r(U)p.r(U)p.r(C)p.r(U)p.r(C)p.r(G)p.r(G)p.m(U)p.r(A)p.r(T)p.r(T)}$$$RNA1{StrandType:ss}|RNA2{StrandType:as}$”, for which the target mRNA knockdown is 54%.

Take “RNA1{m(U)p.r(A)p.r(C)p.r(C)p.r(G)p.r(A)p.r(G)p.r(A)p.r(A)p.r(U)p.r(G)p.r(A)p.r(G)p.r(C)p.r(C)p.r(U)p.r(G)p.r(A)p.r(U)p.r(T)p.r(T)}|RNA2{r(A)p.r(U)p.r(C)p.r(A)p.r(G)p.r(G)p.r(C)p.r(U)p.r(C)p.r(A)p.r(U)p.r(U)p.r(C)p.r(U)p.r(C)p.r(G)p.r(G)p.m(U)p.r(A)p.r(T)p.r(T)}$$$RNA1{StrandType:ss}|RNA2{StrandType:as}$”: the target mRNA knockdown came out at 55%.

For “RNA1{m(U)p.r(A)p.r(G)p.r(C)p.m(C)p.r(A)p.r(G)p.r(A)p.r(G)p.r(C)p.m(C)p.r(A)p.r(A)p.r(A)p.r(G)p.r(A)p.r(A)p.r(G)p.r(C)p.r(T)p.r(T)}|RNA2{r(G)p.r(C)p.r(U)p.r(U)p.r(C)p.r(U)p.r(U)p.r(U)p.r(G)p.m(G)p.r(C)p.r(U)p.r(C)p.r(U)p.r(G)p.m(G)p.m(C)p.m(U)p.r(A)p.r(T)p.r(T)}$$$RNA1{StrandType:ss}|RNA2{StrandType:as}$”, the target mRNA knockdown was 85%.

For “RNA1{m(U)p.r(A)p.r(G)p.r(C)p.r(C)p.r(A)p.r(G)p.r(A)p.r(G)p.r(C)p.r(C)p.r(A)p.r(A)p.r(A)p.r(G)p.r(A)p.r(A)p.r(G)p.r(C)p.r(T)p.r(T)}|RNA2{r(G)p.r(C)p.r(U)p.r(U)p.r(C)p.r(U)p.r(U)p.r(U)p.r(G)p.r(G)p.r(C)p.r(U)p.r(C)p.r(U)p.r(G)p.r(G)p.r(C)p.m(U)p.r(A)p.r(T)p.r(T)}$$$RNA1{StrandType:ss}|RNA2{StrandType:as}$”, the target mRNA knockdown was determined as 82%.

As for “RNA1{m(U)p.r(C)p.m(C)p.r(C)p.m(U)p.r(U)p.m(C)p.r(C)p.m(A)p.r(C)p.m(C)p.r(G)p.m(C)p.r(C)p.m(A)p.r(U)p.m(A)p.r(U)p.m(U)p.r(T)p.r(T)}|RNA2{r(A)p.r(A)p.r(U)p.r(A)p.r(U)p.r(G)p.r(G)p.r(C)p.r(G)p.r(G)p.r(U)p.r(G)p.r(G)p.r(A)p.r(A)p.r(G)p.r(G)p.r(G)p.r(A)p.r(T)p.r(T)}$$$RNA1{StrandType:ss}|RNA2{StrandType:as}$”, the target mRNA knockdown is 11%.

“RNA1{m(U)p.r(C)p.m(C)p.r(U)p.m(A)p.r(G)p.m(C)p.r(U)p.m(G)p.r(U)p.m(C)p.r(U)p.m(U)p.r(G)p.m(U)p.r(C)p.m(C)p.r(C)p.m(U)p.r(T)p.r(T)}|RNA2{r(A)p.r(G)p.r(G)p.r(G)p.r(A)p.r(C)p.r(A)p.r(A)p.r(G)p.r(A)p.r(C)p.r(A)p.r(G)p.r(C)p.r(U)p.r(A)p.r(G)p.r(G)p.r(A)p.r(T)p.r(T)}$$$RNA1{StrandType:ss}|RNA2{StrandType:as}$”: the target mRNA knockdown amounted to 27%.

With “RNA1{m(U)p.r(C)p.m(C)p.r(U)p.m(C)p.r(G)p.m(U)p.r(C)p.m(G)p.r(U)p.m(C)p.r(U)p.m(G)p.r(U)p.m(U)p.r(C)p.m(U)p.r(A)p.m(A)p.r(T)p.r(T)}|RNA2{r(U)p.r(U)p.m(A)p.r(G)p.m(A)p.r(A)p.r(C)p.r(A)p.r(G)p.r(A)p.r(C)p.r(G)p.r(A)p.r(C)p.r(G)p.r(A)p.m(G)p.r(G)p.m(A)p.r(T)p.r(T)}$$$RNA1{StrandType:ss}|RNA2{StrandType:as}$”, the target mRNA knockdown stood at 63%.

Substance “RNA1{m(U)p.r(C)p.m(U)p.r(A)p.m(C)p.r(A)p.m(C)p.r(C)p.m(G)p.r(C)p.m(G)p.r(C)p.m(C)p.r(C)p.m(C)p.r(C)p.m(C)p.r(U)p.m(C)p.r(T)p.r(T)}|RNA2{r(G)p.r(A)p.r(G)p.r(G)p.r(G)p.r(G)p.r(G)p.r(G)p.r(C)p.r(G)p.r(C)p.r(G)p.r(G)p.r(U)p.r(G)p.r(U)p.r(A)p.r(G)p.r(A)p.r(T)p.r(T)}$$$RNA1{StrandType:ss}|RNA2{StrandType:as}$” returned a target mRNA knockdown of 39%.

In turn, “RNA1{m(U)p.r(C)p.m(U)p.r(C)p.m(G)p.r(U)p.m(A)p.r(A)p.m(G)p.r(G)p.m(A)p.r(C)p.m(G)p.r(A)p.m(A)p.r(A)p.m(C)p.r(G)p.r(A)p.r(T)p.r(T)}|RNA2{r(U)p.r(C)p.r(G)p.r(U)p.r(U)p.r(U)p.r(C)p.r(G)p.r(U)p.r(C)p.r(C)p.r(U)p.r(U)p.r(A)p.r(C)p.r(G)p.r(A)p.r(G)p.r(A)p.r(T)p.r(T)}$$$RNA1{StrandType:ss}|RNA2{StrandType:as}$” registered a target mRNA knockdown of 34%.

Consider “RNA1{m(U)p.r(G)p.m(A)p.r(A)p.m(C)p.r(G)p.m(U)p.r(C)p.m(A)p.r(C)p.m(C)p.r(G)p.m(A)p.r(G)p.m(G)p.r(A)p.m(G)p.r(A)p.m(A)p.r(T)p.r(T)}|RNA2{r(U)p.r(U)p.r(C)p.r(U)p.r(C)p.r(C)p.r(U)p.r(C)p.r(G)p.r(G)p.r(U)p.r(G)p.m(A)p.r(C)p.r(G)p.r(U)p.r(U)p.r(C)p.m(A)p.r(T)p.r(T)}$$$RNA1{StrandType:ss}|RNA2{StrandType:as}$”, for which the target mRNA knockdown was 65%.

The substance “RNA1{m(U)p.r(G)p.r(A)p.r(A)p.r(C)p.r(G)p.r(U)p.m(C)p.r(A)p.r(C)p.r(C)p.r(G)p.r(A)p.r(G)p.r(G)p.r(A)p.r(G)p.r(A)p.r(A)p.r(T)p.r(T)}|RNA2{r(U)p.r(U)p.r(C)p.r(U)p.r(C)p.r(C)p.r(U)p.r(C)p.r(G)p.r(G)p.m(U)p.r(G)p.r(A)p.r(C)p.r(G)p.r(U)p.r(U)p.m(C)p.r(A)p.r(T)p.r(T)}$$$RNA1{StrandType:ss}|RNA2{StrandType:as}$” gave a target mRNA knockdown of 82%.

Substance “RNA1{m(U)p.r(U)p.m(A)p.r(A)p.m(A)p.r(G)p.m(G)p.r(G)p.m(C)p.r(G)p.m(A)p.r(G)p.m(A)p.r(A)p.m(G)p.r(A)p.m(C)p.r(C)p.m(G)p.r(T)p.r(T)}|RNA2{r(C)p.r(G)p.r(G)p.r(U)p.r(C)p.r(U)p.r(U)p.r(C)p.r(U)p.r(C)p.r(G)p.r(C)p.r(C)p.r(C)p.r(U)p.r(U)p.r(U)p.r(A)p.r(A)p.r(T)p.r(T)}$$$RNA1{StrandType:ss}|RNA2{StrandType:as}$” had a target mRNA knockdown of 67%.

Consider “RNA1{m(U)p.r(U)p.m(A)p.r(A)p.m(G)p.r(G)p.m(A)p.r(G)p.m(A)p.r(A)p.m(G)p.r(C)p.m(U)p.r(G)p.m(A)p.r(C)p.m(G)p.r(G)p.m(C)p.r(T)p.r(T)}|RNA2{m(G)p.r(C)p.r(C)p.m(G)p.r(U)p.r(C)p.r(A)p.m(G)p.r(C)p.r(U)p.r(U)p.r(C)p.r(U)p.r(C)p.r(C)p.r(U)p.r(U)p.r(A)p.r(A)p.r(T)p.r(T)}$$$RNA1{StrandType:ss}|RNA2{StrandType:as}$”, for which the target mRNA knockdown is 45%.

Substance “RNA1{m(U)p.r(U)p.m(A)p.r(A)p.m(G)p.r(G)p.m(A)p.r(G)p.m(A)p.r(A)p.m(G)p.r(C)p.m(U)p.r(G)p.m(A)p.r(C)p.m(G)p.r(G)p.m(C)p.r(T)p.r(T)}|RNA2{r(G)p.r(C)p.r(C)p.r(G)p.r(U)p.r(C)p.r(A)p.r(G)p.r(C)p.r(U)p.r(U)p.r(C)p.r(U)p.r(C)p.r(C)p.r(U)p.r(U)p.r(A)p.r(A)p.r(T)p.r(T)}$$$RNA1{StrandType:ss}|RNA2{StrandType:as}$” came in with a target mRNA knockdown of 24%.

These data come from the OligoGym collection.
